Test results from patent US7432228B2, “Inhibitor against biosynthesis of abscisic acid” (Riken, priority 2001, dated 2008).

Columns and labels:
seeds of barley = assay: Germination rate of barley seeds; format: in vivo; conditions: barley seeds with lowered germination rate; 100 seeds, test solution at a given concentration, light, 25° C., after one week
Experimental: In the test, 2 sheets of filter paper were placed in a 15 cm laboratory dish, and each of the test solutions of the compounds at a given concentration (10 ml) was added to the dish, and 100 seeds were put on the paper and cultured under a light at 25° C. Ratios of germinated seeds were calculated after one week.

spinach = assay: Inhibitory test against pore closing; format: in vivo; conditions: for inhibitory activities against pore closing: plants with open pores treated with compound, transferred into mannose solution of high concentration
Experimental: Inhibitory tests against pore closing were carried out by using the aforementioned compounds. In these tests, plants in the state that their pores are open are treated with the compounds, and closings of the pores are examined when the plants are transferred into a mannose solution of high concentration to make the pores closed. Pore closing is caused by the effect of abscisic acid biosynthesized in the body of a plant that has detected the change of the mannose concentration. The test was carried out according to the method described in the literature of Plant Physiology (1992) 99, 1258-1260 and by using spinach as a material.

Mung bean = assay: Root length of cut Mung bean hypocotyls soaked in compound solutions; format: in vivo; conditions: Mung bean hypocotyls soaked by 2 cm in compound solution at a given concentration; 6th day after soaking
Experimental: The compounds of the present invention were applied to plant bodies. Hypocotyls of Mung bean on the 6th-day after seeding, that were grown at 25° C., were cut in water with razor, and the hypocotyl parts were soaked by 2 cm in solutions of the compounds at a given concentration. On the 6th day after the soaking, the lengths of the roots were measured. The following results were shown as an average length per root.

[1] = test system: abscisic acid biosynthesis; conditions: reported in Plant Physiology (1992) 99, 1258-1260; cited from earlier work
[2] = test system: epoxycarotenoid dioxygenase (NCED); assay: Inhibitory action against epoxycarotenoid dioxygenase (NCED): cleavage reaction of neoxanthin; format: biochemical; conditions: concentration of 100 μM
Experimental: The inhibitory action against epoxycarotenoid dioxygenase was studied. The test was carried out according to the method described in The Plant Journal (2001) 27(4), 325-333.
The NCED inhibitory activity of the compounds of the present invention was studied.

Row | SMILES | Germination rate (%) (seeds of barley) | inhibitory activities against pore closing (spinach) | Length (cm), average length per root (Mung bean) | inhibitory action on the abscisic acid biosynthesis [1] | pore closing when treated plants were added with abscisic acid (spinach; compound-treated plants, abscisic acid added) | inhibition of the cleavage reaction of neoxanthin by NCED [2]
1 | COc1ccc(C=CCNCc2ccc(F)cc2)cc1OC [SY95, [3-(3,4-dimethoxy-phenyl)-allyl]-(4-fluoro-benzyl)-amine] | 29% | potent inhibitory activities | 0.6 cm | – | – | –
2 | COc1ccc(CNCCc2ccc(O)cc2)cc1OC [SY88, 4-[2-(3,4-dimethoxy-benzylamino)-ethyl]-phenol] | 8% | – | >0.1 cm | – | – | –
3 | Oc1ccc(CCNCc2ccncc2)cc1 [SY106, 4-{2-[(pyridin-4-ylmethyl)-2-amino]-ethyl}-phenol] | 9% | – | >0.1 cm | – | – | –
4 | Oc1ccc(CCNCc2ccoc2)cc1 [SY107, 4-{2-[(furan-3-ylmethyl)-amino]-ethyl}-phenol] | 10% | – | >0.1 cm | – | – | –
5 | Oc1ccc(CCNCc2ccccc2O)cc1 [SY109, 4-[2-(2-hydroxy-benzylamino)-ethyl]-phenol] | 35% | potent inhibitory activities | 1.5 cm | – | – | –
6 | COc1ccc(C=CCN(C)Cc2ccc(F)cc2)cc1OC [SY99, [3-(3,4-dimethoxy-phenyl)-allyl]-(4-fluoro-benzyl)-methyl-amine] | 15% | potent inhibitory activities | 0.4 cm | – | – | –
7 | CC(Cc1ccc(O)c(O)c1)C(C)Cc1ccc(O)c(O)c1 (centres unmarked) [NDGA, 4,4′-(2,3-dimethyl-1,4-butanediyl)bis-1,2-benzenediol] | – | – | – | inhibitory action on the abscisic acid biosynthesis | did not close | completely inhibited
8 | COc1ccc(NCC=Cc2ccc(OC)c(OC)c2)cc1 [SY87, [3-(3,4-dimethoxy-phenyl)-allyl]-(4-methoxy-phenyl)-amine] | 40% | potent inhibitory activities | 0.6 cm | – | – | –
9 | Oc1ccc(CCNCc2ccc(O)c(O)c2)cc1 [SY90, 4-{[2-(4-hydroxy-phenyl)-ethylamino]-methyl}-benzene-1,2-diol] | 12% | – | >0.1 cm | – | – | –
10 | COc1ccc(CCN(C)Cc2ccc(OC)c(OC)c2)cc1 [SY96, (3,4-dimethoxy-benzyl)-[2-(4-methoxy-phenyl)-ethyl]-methyl-amine] | 21% | potent inhibitory activities | 1.5 cm | – | – | –
11 | COC(=O)CN(CC=Cc1ccc(OC)c(OC)c1)Cc1ccc(F)cc1 [SY97, [[3-(3,4-dimethoxy-phenyl)-allyl]-(4-fluoro-benzyl)-amino]-acetic acid methyl ester] | 18% | potent inhibitory activities | 0.7 cm | – | – | –
12 | COC(=O)COc1ccc(CCN(CC(=O)OC)Cc2ccc(OC)c(OC)c2)cc1 [SY94, {(3,4-dimethoxy-benzyl)-[2-(4-methoxycarbonylmethoxy-phenyl)-ethyl]-amino}-acetic acid methyl ester] | 52% | potent inhibitory activities | 2.1 cm | – | – | –
